The source of these data is patent publication EP0102213A1, “Ethanolamine derivatives, pharmaceutical compositions containing them, and processes for preparing them” (BEECHAM GROUP PLC, priority 1982, dated 1984).

Where a name gives a salt, the structure may show the parent alone.

The subject of experiment [1] is Female CFLP mice. As to the kind of experiment: Hypoglycaemic activity: blood glucose after subcutaneous glucose load in fasted mice. In kind it is in vivo. Conditions: 24 h fasted female CFLP mice, glucose 1 g/Kg s.c. 30 min after dosing, 2 hour AUC versus water controls. On the procedure: Female CFLP mice, weighing approximately 25 g, were fasted for 24 hours prior to the study. The compounds under study were administered orally as an aqueous solution to each of 6 mice. 30 minutes later a blood sample (10 ul) was obtained from the tail for the analysis of blood glucose. Immediately after taking this blood sample, glucose (lg/Kg body weight) was administered subcutaneously to each mouse. 6 mice were given water as a control. Blood samples were then obtained from each mouse at 30 minute intervals for 120 minutes.
Compounds that produced a significant (P<0.05) reduction of blood glucose, compared with control mice given water, at any time interval, were considered active. The area under the blood glucose curve over the 2 hour period after the administration of the glucose was calculated for each compound and compared with the value for control animals.

For experiment [2], the system named is right atrium. As to the kind of experiment: Cardiac activity: rate of the spontaneously beating isolated right atrium. Conditions: rat right atrium; for Emax: intrinsic activity: maximal effect relative to isoprenaline maximum (isoprenaline = 1), read-out: Rate i.a.; for EC50: Krebs solution 32°C, concentration producing 50% of the compound's own maximum response. Details: species or system Sprague-Dawley male rats. On the procedure: (§1) Sprague-Dawley male rats (300-400 g) are killed and the right and left atria dissected out independently and mounted on a combined tissue holder/ electrode. The tissues are then immersed in a glass bath containing Krebs solution maintained at 32°C. The rate of the spontaneously beating right atrium (via an isometric transducer and a ratemeter) and the tension of the electrically paced left atrium (via an isometric transducer) are recorded on an Ml9 chart recorder.
(§2) After an initial stabilization period, the tissues are exposed to a maximal concentration of isoprenaline (10-^7M). The tissues are then washed several times until rate and tension return to baseline level. A dose-response curve to the test compound is then carried out.
(§3) Responses to each concentration of test compound are expressed as a percentage of the maximal responses to isoprenaline. Results are given in the form of (a) intrinsic activity (i.a.) (maximal effect of test compound with respect to isoprenaline maximum, i.e. isoprenaline intrinsic activity = 1) and (b) EC50 (the molar concentration at which the test compound produces 50% of its own maximum response).

Experiment [3] relates to left atrium. As to the kind of experiment: Cardiac activity: tension of the electrically paced isolated left atrium. Also noted: species or system Sprague-Dawley male rats. Conditions: rat left atrium; for Emax: intrinsic activity: maximal effect relative to isoprenaline maximum (isoprenaline = 1), read-out: Tension i.a.; for EC50: electrically paced, Krebs solution 32°C, concentration producing 50% of the compound's own maximum response. On the procedure: as §1, §2, §3

Experiment [4] concerns genetically obese mice. As to the kind of experiment: Anti-obesity activity: carcass lipid after daily oral gavage for 28 days. It is filed as in vivo. Conditions: carcass composition. On the procedure:
The compounds were administered by oral gavage in water or carboxymethyl-cellulose suspension to genetically obese mice daily for 28 days. At the end of the time the carcass composition was determined.

Setting [5] is: 13.4 mg/kg p.o. daily for 28 days.

`CC(Cc1ccc(OCCN2CCN(Cc3ccccc3)CC2)cc1)NCC(O)c1cccc(C(F)(F)F)c1` (centres unmarked) [Example 1, N-[2-(4-(2-(1-(4-Benzyl)piperazinyl)ethoxy)henyl)-1-methylethyl]-2-hydroxy-2-(3-trifluoromethylphenyl)ethanamine trihydrochloride]: in experiment [1] (2.5 μmol/Kg orally), the “% Reduction in area under Blood Glucose Curve” value (from here on “% Reduction in area”) was 38%. Moreover, the Emax in experiment [2] and in experiment [3] was 0% throughout.

Consider `CC(Cc1ccc(OCCN2CCN(c3ccccc3)CC2)cc1)NCC(O)c1cccc(C(F)(F)F)c1` (centres unmarked) [Example 2, N-[2-(4-(2-(1-(4-Phenyl)piperazinyl)ethoxy)phenyl)-1-methylethyl]-2-hydroxy-2-(3-trifluoromethylphenyl)ethan-amine trihydrobromide], for which, in experiment [1] (2.5 μmol/Kg orally), the “% Reduction in area” value is given as 64%. Also, the Emax in experiment [3] worked out at 0%.

With `Br.Br.Br.CC(Cc1ccc(OCCN2CCNCC2)cc1)NCC(O)c1cccc(C(F)(F)F)c1` (centres unmarked) [Example 3, N-[2-(4-(2-(1-Piperazinyl)ethoxy)phenyl)-1-methylethyl]-2-hydroxy-2-(3-trifluoromethylphenyl)ethanamine trihydrobromide], the “% Reduction in area” value in experiment [1] (2.5 μmol/Kg orally) is recorded as 20%.

As for `CC(Cc1ccc(OCCN2CCN(c3ccccc3)CC2)cc1)NCC(O)c1ccccc1` (centres unmarked) [Example 5, N-[2-(4-(2-(1-(4-Phenyl)piperazinyl)ethoxy)phenyl)-1-methylethyl]-2-hydroxy-2-phenylethanamine trihydrochloride], in experiment [2], the Emax amounted to 42% and the midpoint of the response, the EC50, lay at 0.54 µM. Besides, in experiment [3], the Emax was found to be 67% and a half-maximal effect (EC50) was put at 12 µM.

As to `CC(Cc1ccc(OCCN2CCN(c3ccccc3)CC2)cc1)NCC(O)c1ccccc1F` (centres unmarked) [Example 6, N-[2-(4-(2-(1-(4-Phenyl)piperazinyl)ethox)phenyl)-1-methylethyl]-2-hydroxy-2-(2-fluorophenyl)ethanamine trihydrochloride], in experiment [2], the Emax amounted to 44% and the half-maximal effective concentration (EC50) was found to be 0.35 µM. In addition, in experiment [3], the Emax was found to be 28% and the EC50 was determined as 14 µM.

For `CC(Cc1ccc(OCCN2CCN(c3ccccc3)CC2)cc1)NCC(O)c1cccc(Cl)c1F` (centres unmarked) [Example 7, N-[2-(4-(2-(1-(4-Phenyl)piperazinyl)ethoxy)phenyl)-1-methylethyl]-2-hydroxy-2-(2-fluoro-3-chlorophenyl)ethanamine trihydrochloride], in experiment [2], the Emax was 35% and the EC50 was determined as 0.17 µM. For the same compound, the Emax in experiment [3] is 0%.

As for `CC(Cc1ccc(OCCN2CCN(c3cccc(Cl)c3)CC2)cc1)NCC(O)c1cccc(C(F)(F)F)c1` (centres unmarked) [Example 8, N-[2-(4-(2-(1-(4-(3-Chlorophenyl))piperazinyl)ethoxy)-phenyl)-1-methylethyl]-2-hydroxy-2-(3-trifluoromethylphenyl)ethanamine trihydrochloride], the “g LIPID/MOUSE TREATED” value in experiment [4] (setting [5]) is 18.06 g.

Regarding `CC(Cc1ccc(OCCN2CCN(c3ccc(Cl)cc3)CC2)cc1)NCC(O)c1cccc(C(F)(F)F)c1` (centres unmarked) [Example 10, N-[2-(4-(2-(1-(4-(4-Chlorophenyl))piperazinyl)ethoxy)-phenyl)-1-methylethyl]-2-hydroxy-2-(3-trifluoromethylphenyl)ethanamine trihydrochloride], the Emax is 86% in experiment [2] and 100% in experiment [3]. In addition, the EC50 in experiment [2] worked out at 20 µM; in experiment [3], 27 µM.

For `CC(Cc1ccc(OCCN2CCN(c3cccc(C(F)(F)F)c3)CC2)cc1)NCC(O)c1cccc(Cl)c1` (centres unmarked) [Example 13, N-[2-(4-(2-(1-(4-(3-Trifluoromethylphenyl))piperazinyl)-ethoxy)phenyl)-1-methylethyl]-2-hydroxy-2-(3-chlorophenyl) ethanamine trihydrochloride], in experiment [4] (setting [5]), the “g LIPID/MOUSE TREATED” value was 16.40 g. For the same compound, in experiment [2], the Emax is 7% and the EC50 worked out at 0.035 µM. In addition, in experiment [3], the Emax came to 33% and the concentration giving a half-maximal response (EC50) amounted to 45 µM.

On to `CC(Cc1ccc(OCCN2CCN(C)CC2)cc1)NCC(O)c1cccc(C(F)(F)F)c1` (centres unmarked) [Example 14, N-[2-(4-(2-(1-(4-Methyl)piperazinyl)ethoxy)henyl)-1-methylethyl]-2-hydroxy-2-(3-trifluoromethylphenyl) ethanamine trihydrochloride, monohydrate], for which, in experiment [4] (11.9 mg/kg p.o. daily for 28 days), the “g LIPID/MOUSE TREATED” value is on record as 18.26 g. Moreover, in experiment [2], the Emax turned out to be 4% and the EC50 turned out to be 1.7 µM. Further, in experiment [3], the Emax was determined as 0%.

Turning to `COC(CNC(C)Cc1ccc(OCCN2CCN(c3ccccc3)CC2)cc1)c1cccc(Cl)c1` (centres unmarked) [Example 15, N-[2-(4-(2-(1-(4-Phenyl)piperazinyl)ethoxy)phenyl)-1-methylethyl]-2-methoxy-2-(3-chlorophenyl)ethanamine trihydrochloride], the “% Reduction in area” value in experiment [1] (12.5 μmol/Kg orally) is recorded as 47%.

In general, EC50 refers to the concentration needed to bring the measured effect to its halfway point. Low readings indicate greater potency, high ones weaker potency.
